SMILES strings stand for the structures.

One assay addresses T1, 6His-Tev-LRRK2 (1326-2527) (Homo sapiens, UniProt Q5S007).
T1 construct: A LRRK2 cDNA encoding residues 1326-2527 was received from Dundee University; made in house; host or cells: Spodoptera frugiperda (Sf9) insect cells, baculovirus
T1 sequence (Q5S007 1326-2527): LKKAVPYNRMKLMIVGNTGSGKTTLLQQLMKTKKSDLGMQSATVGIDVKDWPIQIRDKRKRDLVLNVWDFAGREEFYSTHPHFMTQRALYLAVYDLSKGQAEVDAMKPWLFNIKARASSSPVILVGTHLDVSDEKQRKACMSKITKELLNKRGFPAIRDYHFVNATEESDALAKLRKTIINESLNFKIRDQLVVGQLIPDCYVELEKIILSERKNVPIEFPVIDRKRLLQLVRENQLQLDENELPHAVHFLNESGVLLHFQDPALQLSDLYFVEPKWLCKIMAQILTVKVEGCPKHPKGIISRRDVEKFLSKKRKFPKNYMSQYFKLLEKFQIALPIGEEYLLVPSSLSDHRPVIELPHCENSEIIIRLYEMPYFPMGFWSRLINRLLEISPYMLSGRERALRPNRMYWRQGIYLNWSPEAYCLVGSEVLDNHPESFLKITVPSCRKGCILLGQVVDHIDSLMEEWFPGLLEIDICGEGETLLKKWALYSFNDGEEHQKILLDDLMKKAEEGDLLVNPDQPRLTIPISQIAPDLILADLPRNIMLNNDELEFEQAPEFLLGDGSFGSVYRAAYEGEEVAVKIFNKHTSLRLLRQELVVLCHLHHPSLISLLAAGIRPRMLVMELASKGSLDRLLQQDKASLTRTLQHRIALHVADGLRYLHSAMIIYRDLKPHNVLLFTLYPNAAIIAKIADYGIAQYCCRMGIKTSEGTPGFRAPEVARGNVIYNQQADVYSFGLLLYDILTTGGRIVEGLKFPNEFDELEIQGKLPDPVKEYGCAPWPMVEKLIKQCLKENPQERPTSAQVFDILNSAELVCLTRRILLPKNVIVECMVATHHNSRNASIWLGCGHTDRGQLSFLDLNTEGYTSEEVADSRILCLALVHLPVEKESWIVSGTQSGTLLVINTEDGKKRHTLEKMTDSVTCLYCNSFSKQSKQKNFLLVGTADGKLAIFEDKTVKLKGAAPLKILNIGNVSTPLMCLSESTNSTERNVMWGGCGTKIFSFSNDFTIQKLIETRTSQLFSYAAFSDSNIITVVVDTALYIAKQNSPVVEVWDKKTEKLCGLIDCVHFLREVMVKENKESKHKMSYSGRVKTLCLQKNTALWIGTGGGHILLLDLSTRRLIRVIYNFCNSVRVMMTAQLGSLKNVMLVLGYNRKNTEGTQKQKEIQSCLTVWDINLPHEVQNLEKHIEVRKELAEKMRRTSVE
The experiment in a line: LRRK2 AlphaScreen desensitised protein substrate assay. The format is biochemical. The settings on record: excess of ATP present (2 mM ATP); read-out: pIC50 in the LRRK2 alphascreen desensitised protein substrate assay (converted). The procedure:
(§1) a) 100 nl of a 1:4 serial dilution of test compound with a top final assay concentration of 30 μM is added to certain wells in a low volume 384 well black plate. 100 nl of DMSO is used in certain wells as controls.
b) 3 μl enzyme solution (80 nM purified recombinant 6His-Tev-LRRK2 (1326-2527) in assay buffer: 50 mM Hepes (pH 7.2), 10 mM MgCl2, 150 mM NaCl, 5% glycerol, 0.0025% triton X-100 and 1 mM DTT) is added to certain wells.
Plates are then incubated for a further 1-2 hours at room temperature (incubation time varies depending upon rate and linearity of reaction with differing enzyme batches).
d) 6 μl detection solution (1:250 dilution of AlphaLisa Protein A Acceptor beads (PerkinElmer), 1:64 dilution of AlphaLisa Gluthathione Donor beads (PerkinElmer) and 1:600 dilution (dilution determined on a batch to batch basis) of Phospho-Ezrin (Thr567)/Radixin (Thr564)/Moesin (Thr558) Polyclonal Antibody (New England Biolabs) in a buffer: 50 mM Hepes (pH 7.5), 250 mM NaCl, 60 mM EDTA, 1% PEG and 0.01% Brij 35) is added to each well. Plates are then incubated for a further 2 hours at room temperature in the dark before reading on an EnVision™ plate reader with AlphaScreen HTS turbo option module and AlphaScreen settings. Data is analysed using ActivityBase software (IDBS).
LRRK2 AlphaScreen Desensitised Protein Substrate Assay
This is conducted as described for the LRRK2 alphascreen protein substrate assay, with the following differences: • 1. The concentration of ATP in the substrate solution was 2 mM. • 2. The plates were incubated for 20 minutes at room temperature following addition of the substrate solution. Pharmacological Data
Turning to `CN1CCN(C(=O)c2ccc(OCc3ccccc3)c(C(=O)Nc3cccnc3)c2)CC1` [Example 35, 5-[(4-Methyl-1-piperazinyl)carbonyl]-2-[(phenylmethyl)oxy]-N-3-pyridinylbenzamide], the IC50 is no more than 20 µM. `O=C(Nc1cccnc1)c1cc(C(=O)N2CCCCC2)ccc1OCc1ccccc1` [Example 36, 2-[(Phenylmethyl)oxy]-5-(1-piperidinylcarbonyl)-N-3-pyridinylbenzamide]: the IC50 is no more than 20 µM. Same read-out and setting: in the case of `O=C(Nc1cccnc1)c1cc(S(=O)(=O)N2CCOCC2)ccc1OCc1ccccc1` [Example 41, 5-(4-Morpholinylsulfonyl)-2-[(phenylmethyl)oxy]-N-3-pyridinylbenzamide] it was greater than 25.1 µM; in that of `O=C(Nc1cccnc1)c1cc(S(=O)(=O)N2CCCCC2)ccc1OCc1ccccc1` [Example 42, 2-[(Phenylmethyl)oxy]-5-(1-piperidinylsulfonyl)-N-3-pyridinylbenzamide], greater than 25.1 µM. The same measure, in the same setting: in the case of `CN1CCN(S(=O)(=O)c2ccc(OCc3ccccc3)c(C(=O)Nc3cccnc3)c2)CC1` [Example 43, 5-[(4-Methyl-1-piperazinyl)sulfonyl]-2-[(phenylmethyl)oxy]-N-3-pyridinylbenzamide] it was greater than 25.1 µM; in that of `Cn1cc(NC(=O)c2cc(Br)ccc2OCc2ccccc2)cn1` [Example 50, 5-Bromo-N-(1-methyl-1H-pyrazol-4-yl)-2-[(phenylmethyl)oxy]benzamide], no more than 20 µM; in that of `Cc1ccncc1NC(=O)c1cc(-c2ccncc2)ccc1OCc1ccccc1` [Example 52, N-(4-Methyl-3-pyridinyl)-2-[(phenylmethyl)oxy]-5-(4-pyridinyl)benzamide], greater than 25.1 µM. Turning to `COc1ncccc1NC(=O)c1cc(-c2ccncc2)ccc1OCc1ccccc1` [Example 53, N-[2-(Methyloxy)-3-pyridinyl]-2-[(phenylmethyl)oxy]-5-(4-pyridinyl)benzamide], the IC50 is greater than 25.1 µM. Still for that read-out and setting: to `O=C(Nc1cccnc1F)c1cc(-c2ccncc2)ccc1OCc1ccccc1` [Example 54, N-(2-Fluoro-3-pyridinyl)-2-[(phenylmethyl)oxy]-5-(4-pyridinyl)benzamide] belongs no more than 20 µM; to `O=C(Nc1cccnc1CO)c1cc(-c2ccncc2)ccc1OCc1ccccc1` [Example 55, N-[2-(Hydroxymethyl)-3-pyridinyl]-2-[(phenylmethyl)oxy]-5-(4-pyridinyl)benzamide], greater than 25.1 µM.

As for `O=C(Nc1cnccc1CO)c1cc(-c2ccncc2)ccc1OCc1ccccc1` [Example 56, N-[4-(Hydroxymethyl)-3-pyridinyl]-2-[(phenylmethyl)oxy]-5-(4-pyridinyl)benzamide], the IC50 was greater than 25.1 µM. With `Cc1oncc1NC(=O)c1cc(-c2ccncc2)ccc1OCc1ccccc1` [Example 62, N-(5-Methyl-4-isoxazolyl)-2-[(phenylmethyl)oxy]-5-(4-pyridinyl)benzamide], the IC50 is greater than 25.1 µM. Still for that read-out and setting: to `O=C(Nc1cn[nH]c1)c1cc(-c2ccncc2)ccc1OCc1ccccc1` [Example 64, 2-[(Phenylmethyl)oxy]-N-1H-pyrazol-4-yl-5-(4-pyridinyl)benzamide] belongs no more than 20 µM. Still for that read-out and setting: to `Cn1cc(NC(=O)c2cc(-c3ccncc3)ccc2OCc2ccccc2)cn1` [Example 65, N-(1-Methyl-1H-pyrazol-4-yl)-2-[(phenylmethyl)oxy]-5-(4-pyridinyl)benzamide] belongs no more than 20 µM; to `O=C(Nc1ccnnc1)c1cc(CN2CCOCC2)ccc1OCc1ccc(F)c(F)c1` [Example 111, 2-{[(3,4-Difluorophenyl)methyl]oxy}-5-(4-morpholinylmethyl)-N-4-pyridazinylbenzamide], no more than 20 µM; to `COc1ccccc1COc1ccc(-c2cnn(C)c2)cc1C(=O)Nc1cccnc1` [Example 114, 2-({[2-(Methyloxy)phenyl]methyl}oxy)-5-(1-methyl-1H-pyrazol-4-yl)-N-3-pyridinylbenzamide], no more than 20 µM.

As to `NCc1ccc(OCc2ccc(F)c(F)c2)c(C(=O)Nc2cccnc2)c1` [Example 120A, 5-(Aminomethyl)-2-{[(3,4-difluorophenyl)methyl]oxy}-N-3-pyridinylbenzamide], the IC50 was greater than 25.1 µM.

As to `COC(=O)NCc1ccc(OCc2ccc(F)c(F)c2)c(C(=O)Nc2cccnc2)c1` [Example 120B, Methyl ({4-{[(3,4-difluorophenyl)methyl]oxy}-3-[(3-pyridinylamino)carbonyl]phenyl}methyl)carbamate], the IC50 is greater than 25.1 µM. Take `Cc1nocc1NC(=O)c1cc(C(=O)N2CCOCC2)ccc1OCc1ccc(F)cc1` [Example 124, 2-{[(4-Fluorophenyl)methyl]oxy}-N-(3-methyl-4-isoxazolyl)-5-(4-morpholinylcarbonyl)benzamide]: the IC50 was greater than 25.1 µM. For the compound `Cc1nocc1NC(=O)c1cc(C(=O)N2CCOCC2)ccc1OCc1ccc(F)cc1F` [Example 126, 2-{[(2,4-Difluorophenyl)methyl]oxy}-N-(3-methyl-4-isoxazolyl)-5-(4-morpholinylcarbonyl)benzamide], the IC50 was no more than 20 µM.

Take `O=C(Nc1ccnnc1)c1cc(C(F)(F)F)ccc1OCc1ccc(F)cc1` [Example 132, 2-{[(4-Fluorophenyl)methyl]oxy}-N-4-pyridazinyl-5-(trifluoromethyl)benzamide]: the IC50 is no more than 20 µM. Same read-out and setting: in the case of `Cc1nocc1NC(=O)c1cc(C(F)(F)F)ccc1OCc1ccc(F)cc1` [Example 133, 2-{[(4-fluorophenyl)methyl]oxy}-N-(3-methyl-4-isoxazolyl)-5-(trifluoromethyl)benzamide] it was greater than 25.1 µM.

The next assay has as its target T1, 6His-Tev-LRRK2 (1326-2527). Nature of the assay: LRRK2 peptide substrate assay. Format: biochemical. To be noted: Biotin-LRRKtide peptide substrate, ATP at Km; read-out: pIC50 in the LRRK2 peptide substrate assay (converted). The procedure: Compounds of formula (I) may be tested for in vitro kinase activity in accordance with the following assays, using the non natural, in vitro, substrates moesin and the Longer Biotin-LRRKtide. Moesin and a shorter version of the peptide were identified as substrates in Jaleel et al, (2007, Biochem J, 405: 307-317).
LRRK2 Peptide Substrate Assay
as §1
b) 3 μl enzyme solution (80 nM purified recombinant 6His-Tev-LRRK2 (1326-2527) in assay buffer: 50 mM Hepes (pH 7.2), 10 mM MgCl2, 150 mM NaCl, 5% glycerol, 0.0025% triton X-100 and 1 mM DTT) is added to certain wells. […] Plates are then incubated for a further 1-2 hours at room temperature (incubation time varies depending upon rate and linearity of reaction with differing enzyme batches). d) 6 μl detection solution (50 nM Streptavidin SureLight® APC (PerkinElmer), 4 nM Eu-W1024 labelled anti-rabbit IgG antibody (PerkinElmer), 1:500 dilution (dilution determined on a batch to batch basis) of Phospho-Ezrin (Thr567)/Radixin (Thr564)/Moesin (Thr558) Polyclonal Antibody (New England Biolabs) and 60 mM EDTA in buffer: 40 mM Hepes (pH 7.2), 150 mM NaCl, 0.03% BSA) is added to each well. Plates are then incubated for a further 2 hours at room temperature before reading on a suitable plate reader (Excitation 330 nm, emission 620 nm (Eu) and 665 nm (APC)). Data is analysed using ActivityBase software (IDBS). LRRK2 AlphaScreen Protein Substrate Assay
As to `Cc1oncc1NC(=O)c1cc(-c2cnn(C)c2)ccc1OCc1ccc(F)cc1` [Example 135, 2-{[(4-Fluorophenyl)methyl]oxy}-N-(5-methyl-4-isoxazolyl)-5-(1-methyl-1H-pyrazol-4-yl)benzamide], the IC50 was no more than 0.1 µM.

The values above are taken from patent publication US8778939B2, “Compounds” (Glaxo Group Limited, priority 2009, dated 2014).
